Test results published in patent US20020009527A1, “CONTAMINATION-RESISTANT ANIMAL FEEDSTUFFS” (BOBBY J BLAND, priority 1992, published 2002).
Where two headings read alike, the source gives them in different places.

Tests used:
[1] = 1.0 pound formaldehyde (dry wt.) per ton of feed
Experimental: Chickens (1,400,000 broilers) were raised with steam pelletized formaldehyde-treated feed and 250,000 broilers were raised with conventional steam pelletized feed. This test was conducted from the time the chicks were a day old until market weight which is 7 to 8 weeks.

E. coli = test system: E. coli
Experimental: The term “resistant to contamination by pathogenic bacteria” means that a challenge with 1000 colonies per gram of feed results in death of substantially all the bacteria within 48 to 72 hours. […] Sampling procedures for obtaining representative samples of feed are described in Example 16, so that the coefficient of variation can be readily determined.

Escherichia coli [2] = test system: Escherichia coli
Experimental: Poultry starter mash (8000 g) was distributed in one gallon glass jars (2000 g/jar). The mash was autoclaved at 121° C. and 15 psi for one hour on two consecutive days. The sterile poultry starter mash was mixed thoroughly and subsampled using a Humboldt sample splitter to obtain seven 500 g subsamples. […] After treatment the samples were stored at 24° C. for 7 days prior to the recontamination.
The identity of an isolate of Escherichia coli obtained from poultry feed was confirmed by biochemical and serological tests. The isolate was used to inoculate milk dilution bottles containing 90 ml of nutrient both. The inoculated bottles were incubated at 35° C. for 18-24 hours. After incubation the contents of several milk dilution bottles were combined in a sterile 1000 ml Erlenmeyer flask, mixed and the level of Escherichia coli determined by serially diluting the nutrient broth with buffered phosphate. The dilutions were plated onto MacConkey's agar. The inoculated plates were incubated at 35° C. for 18-24 hours. After incubation, the number of E. coli colonies was counted.
After seven days of storage, the subsamples (500 g) were individually inoculated with 20 ml of a nutrient broth culture of E. coli (10^6 colonies/ml). The inoculated feed was transferred to sterile one quart containers with screw cap lids. After 24 hours incubation at 25° C., the treatment samples were split to obtain log subsamples. Each subsample was placed into a milk dilution bottle containing 90 ml of buffered phosphate. The bottles were placed on a wrist action shaker and agitated for 30 minutes. The samples were serially diluted with buffered phosphate and the dilutions plated onto MacConkey's agar (MA) or Hektoen Enteric agar (HEA). The inoculated plates were incubated at 35° C. for 18-24 hours. After incubation, the number of E. coli colonies was counted. […] In this procedure a 25 g subsample was incubated in 225 ml lactose broth for 18-20 hours at 35° C. The inoculated broth was streaked on plates of MacConkey's agar and incubated for 24 hours at 35° C.
The procedure of Example 8 was repeated using an inoculum containing 10^4 colonies/ml of E. coli.

Salmonella typhimurium = details: hydraulic nozzle; 1.32 lb/ton; inoculated after 7 days storage; 24 h incubation
Experimental: Poultry starter mash was distributed in one gallon glass jars (2000 g/jar). The mash was autoclaved at 121° C. and 15 psi for one hour on two consecutive days. The sterile poultry starter mash was mixed thoroughly and subsampled using a Humboldt sample splitter to obtain seven 500 g subsamples. […] After treatment the samples were stored in paper bags at 24° C. prior to the recontamination.
An isolate of Salmonella typhimurium was obtained from poultry feed and was serotyped by the United States Department of Agriculture (USDA) National Veterinary Services Laboratory in Ames, Iowa. The isolate was used to inoculate milk dilution bottles containing 90 ml of nutrient broth. The inoculated bottles were incubated at 35° C. for 18-24 hours. After incubation, the contents of several milk dilution were combined in a sterile 1000 ml Erlenmeyer flask and mixed. The level of Salmonella typhimurium was determined by serially diluting the nutrient broth with buffered phosphate solution and the dilutions plated on modified lysine iron agar. The inoculated plates were incubated at 35° C. for 18-24 hours. After incubation, the number of Salmonella typhimurium colonies was counted.
After 7 days of storage, the subsamples of poultry starter mash (500 g) were individually inoculated with 20 ml of the nutrient broth culture of S. typhimurium (10^3 colonies/gram). […]

Escherichia coli [3] = details: fine mist (43 microns); all quantity levels
Experimental: A sterilized poultry starter mash (500 grams/treatment quantity level) was treated with 37 wt. % formaldehyde solution in quantities of 0.66, 1.33 and 2.00 pounds dry weight of formaldehyde per ton. One set of samples was treated with a coarse spray (270 microns) at 1.8 gal/hr and another was treated with fine mist (43 microns) at 25.5 gal/hr. Each sample of 500 grams was challenged with 20 ml of a liquid inoculum of Escherichia coli (10^6 colonies/ml) one week after treatment.

## C=O [Formaldehyde, formaldehyde]
[1]; broilers, day old to market weight (7 to 8 weeks)
  MORTALITY: 6%
[1]; pounds of feed required to produce one pound live weight gain
  FEED CONVERSION: 2.25
E. coli; 2 lbs. dry wt. of formaldehyde/ton, 2.0% CV
  resistance to contamination (time): about 60 days
E. coli; 4 lbs. dry wt. of formaldehyde per ton of finished feed, 7% CV
  resistance to contamination (time): about 30 days
Escherichia coli [2]; atomizing nozzle, 0.66 lb/ton, inoculum 10^6 colonies/ml (Example 8)
  E. coli colonies/g: 1.11 × 10^2 COLONIES/GRAM
Escherichia coli [2]; hydraulic nozzle, 0.66 lb/ton, inoculum 10^4 colonies/ml (Example 9)
  E. coli colonies/g: 8.78 × 10^3 COLONIES/GRAM
Escherichia coli [2]; hydraulic nozzle, 0.66 lb/ton, inoculum 10^6 colonies/ml (Example 8)
  E. coli colonies/g: 2.74 × 10^5 COLONIES/GRAM
Escherichia coli [2]; hydraulic nozzle, 1.32 lb/ton, inoculum 10^4 colonies/ml (Example 9)
  E. coli colonies/g: 4.33 × 10^3 COLONIES/GRAM
Escherichia coli [2]; hydraulic nozzle, 1.32 lb/ton, inoculum 10^6 colonies/ml (Example 8)
  E. coli colonies/g: 3.67 × 10^3 COLONIES/GRAM
Escherichia coli [2]; hydraulic nozzle, 2.00 lb/ton, inoculum 10^4 colonies/ml (Example 9)
  E. coli colonies/g: 3.33 × 10^2 COLONIES/GRAM
Escherichia coli [2]; hydraulic nozzle, 2.00 lb/ton, inoculum 10^6 colonies/ml (Example 8)
  E. coli colonies/g: 1.04 × 10^2 COLONIES/GRAM
Salmonella typhimurium
  S. typhimurium colonies per gram of feed: 2.94 × 10^2 COLONIES/GRAM
Escherichia coli [3]
  further time free of detectable E. coli (test then discontinued): 60 days
  time after inoculation until free of detectable E. coli: ≤ 48 h
